From the supplement of paper PMC9512659

Columns and labels:
[1] = test system: Mycobacterium tuberculosis Erdman (pMV306hsp+LuxG13); test: log2 fractional inhibitory concentration at 90% inhibition (log2 FIC); higher = more antagonistic
Experimental: (§1)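 DiaMOND pairwise dose responses of an equipotent two-drug mixture (1.5-fold, 10-dose series) against autoluminescent M. tuberculosis Erdman in 384-well plates. Growth inhibition was read by OD600 (luminescence for dormancy) in seven media at a constant and a terminal time point; metrics are means of at least biological duplicates. Einf and AUC25 higher = more potent; GRinf lower = more potent; log2FIC negative = synergy.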

[2] = test system: Mycobacterium tuberculosis Erdman (pMV306hsp+LuxG13); test: GRinf, normalised growth-rate inhibition at infinite dose (GR value (unitless, negative = killing)); higher = less potent
Experimental: as §1

[3] = test system: Mycobacterium tuberculosis Erdman (pMV306hsp+LuxG13); test: Einf, effect of the drug pair at infinite dose (maximum growth inhibition) (fraction inhibition (0-1)); higher = more potent; extreme values may be limits of the assay
Experimental: as §1

[4] = test system: Mycobacterium tuberculosis Erdman (pMV306hsp+LuxG13); test: log2 fractional inhibitory concentration at 50% inhibition (log2 FIC); higher = more antagonistic
Experimental: as §1

[5] = test system: Mycobacterium tuberculosis Erdman (pMV306hsp+LuxG13); test: AUC25, normalised area under the dose-response curve up to IC25 (normalised AUC (unitless)); higher = more potent
Experimental: as §1

COc1nc2ccc(Br)cc2cc1[C@@H](c1ccccc1)[C@@](O)(CCN(C)C)c1cccc2ccccc12 [bedaquiline] + CC(=O)NC[C@H]1CN(c2ccc(N3CCSCC3)c(F)c2)C(=O)O1 [sutezolid]
Settings	AUC25, [5]	Einf, [3]	GRinf, [2]	log2 fractional inhibitory concentration, [1]	log2 fractional inhibitory concentration, [4]
growth medium: acidic pH 5.7, glycerol, time point: constant time point	0.107	0.875	-0.198	–	-0.156
growth medium: acidic pH 5.7, glycerol, time point: terminal time point	0.0983	0.978	-0.241	-0.436	-0.088
growth medium: butyrate 5 mM, time point: constant time point	0.0619	0.885	0.0684	–	2.21
growth medium: butyrate 5 mM, time point: terminal time point	0.0554	0.949	0.0372	0.353	2.08
growth medium: cholesterol 0.05 mM, time point: constant time point	0.0778	1	-0.927	0.332	0.352
growth medium: cholesterol 0.05 mM, time point: terminal time point	0.132	1	-0.972	0.434	-0.0748
growth medium: cholesterol 0.2 mM (cholesterol-high), time point: constant time point	0.0763	1	-1	0.279	-0.0255
growth medium: cholesterol 0.2 mM (cholesterol-high), time point: terminal time point	0.115	1	-0.792	0.315	-0.681
growth medium: standard 7H9 OADC glycerol, time point: constant = terminal time point (4.2 d)	0.048	0.977	-0.0902	-1.24	-0.344
growth medium: valerate 0.1%, time point: constant time point	0.0485	0.864	-0.287	–	1.21
growth medium: valerate 0.1%, time point: terminal time point	0.09	0.991	-0.176	0.567	0.264

growth medium: hypoxic dormancy (butyrate + nitrate), then recovery
Settings	AUC25, [5]	Einf, [3]	GRinf, [2]	log2 fractional inhibitory concentration, [1]	log2 fractional inhibitory concentration, [4]
time point: constant time point	0.0577	0.989	0.17	-0.371	-0.353
time point: terminal time point	0.0431	0.975	0.359	-0.465	0.424

COc1nc2ccc(Br)cc2cc1[C@@H](c1ccccc1)[C@@](O)(CCN(C)C)c1cccc2ccccc12 [bedaquiline] + CC(C)=CCC/C(C)=C/CNCCNC1C2CC3CC(C2)CC1C3 [SQ109]
Settings	AUC25, [5]	Einf, [3]	GRinf, [2]	log2 fractional inhibitory concentration, [1]	log2 fractional inhibitory concentration, [4]
growth medium: butyrate 5 mM, time point: constant time point	0.0731	0.963	-0.11	0.414	0.85
growth medium: butyrate 5 mM, time point: terminal time point	0.0507	0.979	-0.0824	0.616	0.817
growth medium: cholesterol 0.05 mM, time point: constant time point	0.085	0.82	-0.737	–	0.241
growth medium: cholesterol 0.2 mM (cholesterol-high), time point: constant time point	0.0719	1	-0.847	0.667	0.546
growth medium: cholesterol 0.2 mM (cholesterol-high), time point: terminal time point	0.0884	1	-0.779	0.799	0.31
growth medium: standard 7H9 OADC glycerol, time point: constant = terminal time point (4.2 d)	0.0609	0.967	-0.158	–	0.0969
growth medium: valerate 0.1%, time point: constant time point	0.0593	0.996	-0.151	-0.0839	0.191
growth medium: valerate 0.1%, time point: terminal time point	0.047	0.993	-0.127	-0.384	0.276

growth medium: hypoxic dormancy (butyrate + nitrate), then recovery
Settings	AUC25, [5]	Einf, [3]	GRinf, [2]	log2 fractional inhibitory concentration, [1]	log2 fractional inhibitory concentration, [4]
time point: constant time point	0.0746	0.992	-0.388	1.04	1.24
time point: terminal time point	0.0292	0.964	0.0989	-0.972	-0.811

CC(C)/N=c1\cc2n(-c3ccc(Cl)cc3)c3ccccc3nc-2cc1Nc1ccc(Cl)cc1 [clofazimine] + CC(=O)NC[C@H]1CN(c2ccc(N3CCSCC3)c(F)c2)C(=O)O1 [sutezolid]
Settings	AUC25, [5]	Einf, [3]	GRinf, [2]	log2 fractional inhibitory concentration, [1]	log2 fractional inhibitory concentration, [4]
growth medium: acidic pH 5.7, glycerol, time point: constant time point	0.101	0.875	0.0525	–	0.684
growth medium: acidic pH 5.7, glycerol, time point: terminal time point	0.108	0.981	-0.188	-0.457	-0.139
growth medium: butyrate 5 mM, time point: constant time point	0.0828	0.911	0.00728	–	-1.05
growth medium: butyrate 5 mM, time point: terminal time point	0.0725	0.961	-0.00637	-1.04	-1.03
growth medium: cholesterol 0.05 mM, time point: constant time point	0.112	1	-1	-0.263	-0.848
growth medium: cholesterol 0.05 mM, time point: terminal time point	0.125	1	-0.651	-0.782	-1.5
growth medium: cholesterol 0.2 mM (cholesterol-high), time point: constant time point	0.1	0.983	-0.741	-0.0175	-0.164
growth medium: cholesterol 0.2 mM (cholesterol-high), time point: terminal time point	0.116	1	-0.833	-0.392	-0.588
growth medium: standard 7H9 OADC glycerol, time point: constant = terminal time point (4.2 d)	0.0934	0.967	-0.00824	-0.528	-0.402
growth medium: valerate 0.1%, time point: constant time point	0.118	0.949	-0.364	–	0.279
growth medium: valerate 0.1%, time point: terminal time point	0.0261	0.967	0.184	-1.6	0.564

growth medium: hypoxic dormancy (butyrate + nitrate), then recovery
Settings	AUC25, [5]	Einf, [3]	GRinf, [2]	log2 fractional inhibitory concentration, [1]	log2 fractional inhibitory concentration, [4]
time point: constant time point	0.0485	0.988	0.181	-0.341	-0.185
time point: terminal time point	0.0291	0.974	0.351	-0.881	0.178

CC(C)/N=c1\cc2n(-c3ccc(Cl)cc3)c3ccccc3nc-2cc1Nc1ccc(Cl)cc1 [clofazimine] + CC(C)=CCC/C(C)=C/CNCCNC1C2CC3CC(C2)CC1C3 [SQ109]
Settings	AUC25, [5]	Einf, [3]	GRinf, [2]	log2 fractional inhibitory concentration, [1]	log2 fractional inhibitory concentration, [4]
growth medium: butyrate 5 mM, time point: constant time point	0.0628	0.941	-0.113	-0.83	-0.227
growth medium: butyrate 5 mM, time point: terminal time point	0.0621	0.973	-0.111	-0.678	-0.367
growth medium: cholesterol 0.05 mM, time point: constant time point	0.0691	0.758	-0.558	–	-0.774
growth medium: cholesterol 0.2 mM (cholesterol-high), time point: constant time point	0.0566	0.997	-0.966	-0.582	-0.041
growth medium: cholesterol 0.2 mM (cholesterol-high), time point: terminal time point	0.0744	1	-0.823	-0.374	0.4
growth medium: standard 7H9 OADC glycerol, time point: constant = terminal time point (4.2 d)	0.0939	0.937	-0.0512	–	-0.519

growth medium: hypoxic dormancy (butyrate + nitrate), then recovery
Settings	AUC25, [5]	Einf, [3]	GRinf, [2]	log2 fractional inhibitory concentration, [1]	log2 fractional inhibitory concentration, [4]
time point: constant time point	0.0761	0.99	-0.486	-2.43	-1.61
time point: terminal time point	0.0554	0.962	0.147	-1.63	-1.78

CC[C@@H](CO)NCCN[C@@H](CC)CO [ethambutol] + CC(=O)NC[C@H]1CN(c2ccc(N3CCSCC3)c(F)c2)C(=O)O1 [sutezolid]
Settings	AUC25, [5]	Einf, [3]	GRinf, [2]	log2 fractional inhibitory concentration, [1]	log2 fractional inhibitory concentration, [4]
growth medium: acidic pH 5.7, glycerol, time point: constant time point	0.122	0.837	-0.0739	–	-0.476
growth medium: acidic pH 5.7, glycerol, time point: terminal time point	0.0981	0.989	-0.214	0.0843	0.638
growth medium: butyrate 5 mM, time point: constant time point	0.0681	0.911	0.0455	–	0.936
growth medium: butyrate 5 mM, time point: terminal time point	0.0502	0.954	0.0337	-0.108	0.703
growth medium: cholesterol 0.05 mM, time point: constant time point	0.121	1	-1	-0.482	0.779
growth medium: cholesterol 0.05 mM, time point: terminal time point	0.104	1	-0.945	-1.28	-0.083
growth medium: cholesterol 0.2 mM (cholesterol-high), time point: constant time point	0.0903	1	-1	–	-0.151
growth medium: cholesterol 0.2 mM (cholesterol-high), time point: terminal time point	0.109	1	-0.852	-0.0598	-0.578
growth medium: standard 7H9 OADC glycerol, time point: constant = terminal time point (4.2 d)	0.0717	0.982	-0.118	0.432	0.607
growth medium: valerate 0.1%, time point: constant time point	0.132	0.931	-1	–	-0.351
growth medium: valerate 0.1%, time point: terminal time point	0.0852	0.975	-0.02	0.287	0.139

growth medium: hypoxic dormancy (butyrate + nitrate), then recovery
Settings	AUC25, [5]	Einf, [3]	GRinf, [2]	log2 fractional inhibitory concentration, [1]	log2 fractional inhibitory concentration, [4]
time point: constant time point	0.0614	0.989	-0.104	–	0.45
time point: terminal time point	0.0966	0.979	-0.187	0.341	1.4

CC[C@@H](CO)NCCN[C@@H](CC)CO [ethambutol] + CC(C)=CCC/C(C)=C/CNCCNC1C2CC3CC(C2)CC1C3 [SQ109]
Settings	AUC25, [5]	Einf, [3]	GRinf, [2]	log2 fractional inhibitory concentration, [1]	log2 fractional inhibitory concentration, [4]
growth medium: butyrate 5 mM, time point: constant time point	0.0766	0.886	0.0457	–	0.614
growth medium: butyrate 5 mM, time point: terminal time point	0.0668	0.937	0.0593	0.586	0.497
growth medium: cholesterol 0.05 mM, time point: constant time point	0.0769	0.732	-0.435	–	0.488
growth medium: cholesterol 0.2 mM (cholesterol-high), time point: constant time point	0.0635	1	-0.949	0.489	0.679
growth medium: cholesterol 0.2 mM (cholesterol-high), time point: terminal time point	0.0641	1	-0.86	0.354	0.546
growth medium: standard 7H9 OADC glycerol, time point: constant = terminal time point (4.2 d)	0.0512	0.843	0.238	–	0.0946
growth medium: valerate 0.1%, time point: constant time point	0.0745	0.902	0.155	0.158	0.751
growth medium: valerate 0.1%, time point: terminal time point	0.0778	0.9	0.175	0.34	0.656

growth medium: hypoxic dormancy (butyrate + nitrate), then recovery
Settings	AUC25, [5]	Einf, [3]	GRinf, [2]	log2 fractional inhibitory concentration, [1]	log2 fractional inhibitory concentration, [4]
time point: constant time point	0.0928	0.988	-0.333	-0.745	-0.601
time point: terminal time point	0.0578	0.96	0.144	–	0.71
